Laboratory results reported in patent US20250145589A1, “PYRIDINE DERIVATIVE AND USE THEREOF” (SICHUAN HUIYU PHARMACEUTICAL CO., LTD., priority 2021, published 2025).
Read-outs that look alike come from different tables or passages of the source.

What was measured:
[1] = test system: NCI-H358-AMGR drug-resistant cell line; test: NCI-H358-AMGR drug-resistant cell proliferation inhibitory activity test; type: cell-based; settings: 72 h; NCI-H358-AMGR drug-resistant cells, 3 days incubation, CellTiter-Glo
Method: Test Example 6t Generation of NCI-H358-AMGR Drug-Resistant Cell Line
(§1) NCI-H358 cells were seeded and cultured at 50 to 70% confluence in six-well plate with RPMI-640 (10% FBS) medium at 37° C. with 5%4 CO2. AMG510 was added for induction at three starting concentrations of 1 nM, 10 nM and 50 nM, and the medium containing the same concentration of AMG510 was replaced every 3 days. Cells were passaged once they reached confluence. After every, two passages at a given concentration of drug, the concentration was increased in a 3-old increment until final concentrations of 1 μM for AMG510 was achieved.
(§2) NCI-H358-AMGR cells in logarithmic growth phase were collected and seeded into a clear-bottom 96-well plate at a density of 4×10^3 cells per well in 80 μL of medium, and then incubated overnight at 37° C. with 5% CO2. The compounds were serially diluted 5-fold in DMSO to obtain 8 concentrations, and then further diluted with RPMI-640) (10% FBS) cell culture medium to obtain the working solutions (5×), 20 μL of each working solution was added to the cell culture supernatant in each well, and the plate was further incubated for 3 days at 37° C. with 5% CO2. The plate was then equilibrated with CellTiter-Glo® reagent at room temperature (25° C.) for 10-30 minutes. After aspirating 50 μL of the medium, 50 μL of CellTiter-Glo®, reagent was added. The cells were thoroughly mixed with the CellTiter-Glo®, reagent using a microplate shaker for 2 minutes, and then incubated at room temperature for 10 minutes. The %-well plate was placed in a multi-mode microplate reader to record the luminescence values (RLU).
(§3) The inhibitory rate was calculated using the following formula: […]
Data were analyzed using GraphPad Prism for IC50 values (Note: The negative control refers to the group without inhibitor).

[2] = target: PI3Kα (Homo sapiens (Human), UniProt P42336); test: Inhibition of PI3Kα efficacy assay (ADP-Glo kinase assay); type: biochemical; settings: read-out: PI3Kα inhibitory activity (IC50)
Outline: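 Eight five-fold dilutions of compound (2 mM DMSO stock) tested; kinase reaction with PI and ATP ran 60 min at RT, followed by ADP-Glo and detection reagent steps of 40 min each. Four-parameter logistic fitting gave IC50 values.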

[3] = target: PI3Kδ (Homo sapiens (Human), UniProt O00329); test: Inhibition of PI3Kδ efficacy assay (ADP-Glo kinase assay); type: biochemical; settings: read-out: PI3Kδ inhibitory activity (IC50)
Outline: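 Luminescent ADP-Glo readout of PI3Kδ: after a 60 min RT reaction with PI/ATP substrate, ATP depletion (40 min) and ADP detection (40 min) steps followed. Compounds tested as eight five-fold serial dilutions; inhibition rates fitted to log(inhibitor) vs. response, variable slope, for IC50.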

[4] = test system: NCI-H358 cells (KRAS G12C mutant); test: NCI-H358 cell proliferation inhibition (CellTiter-Glo); type: cell-based; settings: Homo sapiens, NCI-H358, 72 h; H358 cells (G12C mutation), 3 days, Table 6; read-out: NCI-H358 (IC50)
[5] = target: KRAS^G12C-SOS1 (Homo sapiens (Human), UniProt P01116, G12C); test: HTRF KRAS G12C/SOS1 binding assay; settings: Table 5
Method: Initially, a 2 mM stock solution of the test compound (dissolved in DMSO) was serially diluted in five-fold concentrations using DMSO to obtain eight working solutions 1 (200×). Subsequently, each of the eight working solutions 1 was further diluted in a 20-fold gradient by adding 5 μL into 95 μL of Diluent buffer, mixed completely with vortex mixer, resulting in eight working solutions 2 (10×). […] Subsequently, 5 μL of Anti-tag 1-Tb^3+ stock solution and 5 μL of Anti-tag2-XL665 were added to each well, mixed, and incubated at 4° C. for 3 hours. Remove the plate and read on an HTRF® compatible reader, with the excitation light wavelength set at 337 nm and readings recorded at 620 nm and 665 nm. The data results were presented as the ratio of the 665 nm signal value to the 620 nm signal value for each well, calculated as follows: […]. The inhibition rate was calculated using the following formula: […]
Data were analyzed using GraphPad Prism with log (inhibitor) vs. response-Variable Slope (four parameters) fitting calculations for IC50 values.

[6] = test system: MIA PaCa-2 cells (KRAS G12C mutant); test: MIA PaCa-2 cell anti-proliferation (CellTiter-Glo); type: cell-based; settings: Homo sapiens, 72 h; MIA Paca-2 cells, 3 days, Table 7; read-out: MIA PaCa-2 (IC50)
Outline: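 Viable-cell luminescence (CellTiter-Glo, ≥30 min at 25 °C) measured after a 3-day, 37 °C exposure to compounds at 9 points, 4-fold spaced, in DMEM containing 10% FBS plus 2.5% horse serum. IC50 derived versus no-inhibitor wells.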

[7] = test system: pancreatic cancer MIA-Paca2 cell subcutaneous xenograft tumor; settings: cited from earlier work
[8] = test system: KRAS G12C mutation; settings: at the cellular level; cited from earlier work
[9] = test system: MIA PaCa-2-AMGR drug-resistant cell line; test: MIA PaCa-2-AMGR drug-resistant cell proliferation inhibitory activity test; type: cell-based; settings: 72 h, MIA PaCa-2-AMGR drug-resistant cells, 3 days incubation, CellTiter-Glo
Method: Test Example 7: Generation of MIA PaCa-2-AMGR drug-resistant cell line
as §1, with “MIA PaCa-2” for “NCI-H358”, “DMEM” for “RPMI-640”, “FBS+2.5% horse serum)” for “FBS)”, “5%” for “5%4”, “every” for “every,”, “3-fold” for “3-old”
as §2, with “MIA PaCa-2-AMGR” for “NCI-H358-AMGR”, “DMEM” for “RPMI-640)”, “FBS+2.5% horse serum)” for “FBS)”, “CellTiter-Glo®” for “CellTiter-Glo®,”, “96-well” for “%-well”
as §3
Data were analyzed using GraphPad Prism for IC50 values (Note: The negative control refers to the group without inhibitor) The data were presented m Table 9

PI3Kδ, sequence (O00329 whole entry): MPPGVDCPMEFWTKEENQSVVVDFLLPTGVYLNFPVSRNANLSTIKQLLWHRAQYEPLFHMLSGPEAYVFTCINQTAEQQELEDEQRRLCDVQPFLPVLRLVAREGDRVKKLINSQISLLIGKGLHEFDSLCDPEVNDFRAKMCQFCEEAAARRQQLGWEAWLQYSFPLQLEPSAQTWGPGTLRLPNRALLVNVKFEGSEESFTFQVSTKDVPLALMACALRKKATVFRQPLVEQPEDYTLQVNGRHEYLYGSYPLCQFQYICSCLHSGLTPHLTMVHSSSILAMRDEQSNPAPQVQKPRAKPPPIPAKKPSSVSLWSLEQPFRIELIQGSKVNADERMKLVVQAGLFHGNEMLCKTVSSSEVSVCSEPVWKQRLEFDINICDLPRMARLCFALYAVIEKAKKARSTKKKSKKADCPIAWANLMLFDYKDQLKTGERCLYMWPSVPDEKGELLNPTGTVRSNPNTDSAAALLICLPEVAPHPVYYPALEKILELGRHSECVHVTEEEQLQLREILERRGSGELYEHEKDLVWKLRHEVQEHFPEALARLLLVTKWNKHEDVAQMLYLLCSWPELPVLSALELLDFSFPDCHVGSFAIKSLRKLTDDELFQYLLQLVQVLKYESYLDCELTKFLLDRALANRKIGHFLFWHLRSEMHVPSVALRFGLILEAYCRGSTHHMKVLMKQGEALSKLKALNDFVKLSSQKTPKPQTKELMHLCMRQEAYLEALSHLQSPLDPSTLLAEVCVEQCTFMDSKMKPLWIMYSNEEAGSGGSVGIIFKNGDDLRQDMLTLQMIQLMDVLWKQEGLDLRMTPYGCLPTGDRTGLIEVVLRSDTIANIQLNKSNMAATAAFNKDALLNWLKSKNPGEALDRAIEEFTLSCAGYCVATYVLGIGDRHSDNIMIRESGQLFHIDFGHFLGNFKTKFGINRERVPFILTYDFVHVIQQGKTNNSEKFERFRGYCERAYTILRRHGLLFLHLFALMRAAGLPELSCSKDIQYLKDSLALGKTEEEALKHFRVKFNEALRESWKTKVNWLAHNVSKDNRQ
PI3Kδ, sequence (P27986 whole entry partner): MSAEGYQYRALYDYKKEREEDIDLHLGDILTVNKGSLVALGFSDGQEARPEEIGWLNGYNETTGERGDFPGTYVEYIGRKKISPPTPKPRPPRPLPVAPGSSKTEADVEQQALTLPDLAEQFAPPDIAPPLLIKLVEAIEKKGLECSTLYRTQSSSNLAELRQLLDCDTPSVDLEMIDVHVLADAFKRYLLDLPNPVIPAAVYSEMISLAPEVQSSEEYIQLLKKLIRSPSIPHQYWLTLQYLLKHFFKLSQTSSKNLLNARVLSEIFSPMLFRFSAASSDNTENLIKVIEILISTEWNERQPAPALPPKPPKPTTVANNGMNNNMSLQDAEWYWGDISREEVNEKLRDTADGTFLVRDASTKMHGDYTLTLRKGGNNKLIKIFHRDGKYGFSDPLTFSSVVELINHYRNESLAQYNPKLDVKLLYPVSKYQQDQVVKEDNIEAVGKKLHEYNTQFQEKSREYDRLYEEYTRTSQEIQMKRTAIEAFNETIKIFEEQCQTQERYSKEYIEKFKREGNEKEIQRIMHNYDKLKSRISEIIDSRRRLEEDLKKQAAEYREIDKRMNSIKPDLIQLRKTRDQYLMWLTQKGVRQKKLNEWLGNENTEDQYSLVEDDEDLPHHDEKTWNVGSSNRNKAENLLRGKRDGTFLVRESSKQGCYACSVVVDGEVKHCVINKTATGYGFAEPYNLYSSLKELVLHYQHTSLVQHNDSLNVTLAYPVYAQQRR
PI3Kα, sequence (P42336 whole entry): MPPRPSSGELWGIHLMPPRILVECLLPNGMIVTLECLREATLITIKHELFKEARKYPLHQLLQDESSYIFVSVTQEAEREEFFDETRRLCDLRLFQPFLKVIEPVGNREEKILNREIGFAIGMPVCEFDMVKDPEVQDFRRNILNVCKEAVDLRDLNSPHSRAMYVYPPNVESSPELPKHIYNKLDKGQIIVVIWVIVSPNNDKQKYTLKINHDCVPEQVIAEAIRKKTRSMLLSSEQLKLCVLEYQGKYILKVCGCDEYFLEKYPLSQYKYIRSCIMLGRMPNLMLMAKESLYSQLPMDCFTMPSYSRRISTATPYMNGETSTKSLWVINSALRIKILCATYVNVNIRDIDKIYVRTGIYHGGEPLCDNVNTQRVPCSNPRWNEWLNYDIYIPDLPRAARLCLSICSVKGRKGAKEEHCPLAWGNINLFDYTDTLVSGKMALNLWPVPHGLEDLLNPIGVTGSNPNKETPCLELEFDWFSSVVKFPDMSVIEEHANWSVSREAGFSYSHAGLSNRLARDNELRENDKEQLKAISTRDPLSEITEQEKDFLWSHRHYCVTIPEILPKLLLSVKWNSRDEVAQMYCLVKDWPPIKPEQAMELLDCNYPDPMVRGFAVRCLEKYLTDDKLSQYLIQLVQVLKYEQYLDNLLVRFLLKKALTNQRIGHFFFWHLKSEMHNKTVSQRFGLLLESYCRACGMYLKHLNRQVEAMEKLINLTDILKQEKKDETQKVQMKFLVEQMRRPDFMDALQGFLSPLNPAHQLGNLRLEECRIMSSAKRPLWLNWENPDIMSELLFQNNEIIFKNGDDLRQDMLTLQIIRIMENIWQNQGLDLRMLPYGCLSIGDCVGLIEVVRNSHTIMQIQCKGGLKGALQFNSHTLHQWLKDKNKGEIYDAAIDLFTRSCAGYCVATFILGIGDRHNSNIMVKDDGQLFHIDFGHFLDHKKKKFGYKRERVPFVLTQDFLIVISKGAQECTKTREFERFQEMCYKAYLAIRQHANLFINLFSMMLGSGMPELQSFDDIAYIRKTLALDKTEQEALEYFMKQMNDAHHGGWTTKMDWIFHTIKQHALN
PI3Kα, sequence (P27986 whole entry partner): as the sequence (P27986 whole entry partner) above
KRAS^G12C-SOS1, sequence (P01116-2 other isoform, or with tags, fused parts or gaps G12C): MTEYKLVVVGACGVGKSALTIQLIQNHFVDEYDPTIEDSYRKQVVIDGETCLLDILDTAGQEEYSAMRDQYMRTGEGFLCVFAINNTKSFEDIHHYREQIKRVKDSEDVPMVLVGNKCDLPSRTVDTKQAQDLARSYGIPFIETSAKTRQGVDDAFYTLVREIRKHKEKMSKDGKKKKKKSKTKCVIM

**Q.** What does the source list for `CC(=O)/C=C/C(=O)N1CCN(c2ncnc3ccc(-c4cnc(N(C)C)c(NS(=O)(=O)c5ccc(F)cc5F)c4)cc23)CC1` [Example 195, (E)-N-(2-(dimethylamino)-5-(4-(4-(4-oxopent-2-enoyl)piperazin-1-yl)quinazolin-6-yl)pyridin-3-yl)-2,4-difluorobenzenesulfonamide]?
**A.** IC50 [1]: 92.3 nM; IC50 ([2]; Table 4): 2.4 nM; IC50 ([3]; Table 4): 13.5 nM; IC50 [4]: 43.9 nM; IC50 [5]: 158 nM; IC50 [6]: 93.3 nM

**Q.** Which tumor growth inhibition [7] does the source give for `C=CC(=O)N1CCN(c2ncnc3c(F)c(-c4c(O)cccc4F)c(Cl)cc23)CC1` [ARS-1620] here?
**A.** effectively inhibit tumor growth

**Q.** And the cellular anti-proliferative activity [8]?
**A.** nM-level

**Q.** Which IC50 [1] does the source give for `CC(=O)/C=C/C(=O)N1CCN(c2ncnc3ccc(-c4cnc(Cl)c(NS(=O)(=O)c5c(F)cccc5F)c4)cc23)CC1` [Example 84, (E)-N-(2-chloro-5-(4-(4-(4-oxopent-2-enoyl)piperazin-1-yl)quinazolin-6-yl)pyridin-3-yl)-2,6-difluorobenzenesulfonamide] here?
**A.** 639 nM

**Q.** And the IC50 ([2]; Table 2)?
**A.** 0.83 nM

**Q.** What about the IC50 ([3]; Table 2) of the same molecule?
**A.** 7.6 nM

**Q.** And the IC50 [4]?
**A.** 13 nM

**Q.** And the IC50 [5]?
**A.** 268 nM

**Q.** And the IC50 [6]?
**A.** 245 nM

**Q.** Which IC50 [1] does the source give for `COc1ncc(-c2ccc3ncnc(N4CC5CCC(C4)N5C(=O)/C=C/C(C)=O)c3c2)cc1NS(=O)(=O)c1ccc(F)cc1F` [Example 58, 2,4-difluoro-N-(2-methoxy-5-(4-(8-((E)-4-oxopent-2-enoyl)-3,8-diazabicyclo[3.2.1]octan-3-yl)quinazolin-6-yl)pyridin-3-yl)benzenesulfon-amide] here?
**A.** 100 nM

**Q.** What about the IC50 ([2]; Table 2) of the same molecule?
**A.** 3.6 nM

**Q.** And the IC50 ([3]; Table 2)?
**A.** 8.3 nM

**Q.** And the IC50 [4]?
**A.** 18.1 nM

**Q.** And the IC50 [5]?
**A.** 278 nM

**Q.** What about the IC50 [6] of the same molecule?
**A.** 26.2 nM

**Q.** Which IC50 [1] does the source give for `COc1ncc(-c2ccc3ncnc(N4CCN(C(=O)/C=C/C(C)=O)CC4)c3c2)cc1NS(=O)(=O)c1ccc(Cl)s1` [Example 38, (E)-5-chloro-N-(2-methoxy-5-(4-(4-(4-oxopent-2-enoyl)piperazin-1-yl)quinazolin-6-yl)pyridin-3-yl)thiophene-2-sulfonamide] here?
**A.** 51.1 nM

**Q.** What about the IC50 ([2]; Table 1) of the same molecule?
**A.** 1.5 nM

**Q.** What about the IC50 ([3]; Table 1) of the same molecule?
**A.** 14.7 nM

**Q.** And the IC50 [9]?
**A.** 216 nM

**Q.** What about the IC50 [5] of the same molecule?
**A.** 807 nM

**Q.** And the IC50 [6]?
**A.** 59.8 nM

**Q.** For `CC(=O)/C=C/C(=O)N1CCN(c2ncnc3ccc(-c4cnc(Cl)c(NS(=O)(=O)c5c(F)cc(F)cc5F)c4)cc23)CC1` [Example 89, (E)-N-(2-chloro-5-(4-(4-(4-oxopent-2-enoyl)piperazin-1-yl)quinazolin-6-yl)pyridin-3-yl)-2,4,6-trifluorobenzenesulfonamide], which IC50 ([2]; Table 2) is on record?
**A.** 2.2 nM

**Q.** What about the IC50 ([3]; Table 2) of the same molecule?
**A.** 8.6 nM

**Q.** What about the IC50 [4] of the same molecule?
**A.** 81.4 nM

**Q.** What about the IC50 [5] of the same molecule?
**A.** 404 nM

**Q.** And the IC50 [6]?
**A.** 511 nM
